Measured values from BigSolDB 2.1.

Cc1c(Cl)cccc1Nc1ccccc1C(=O)O
solubility (mole fraction)
Conditions	283.15 K	288.15 K	293.15 K	298.15 K	303.15 K	308.15 K	313.15 K	318.15 K	323.15 K	328.15 K
in 1,4-dioxane	–	0.0289	0.032	0.0356	0.0399	0.0444	0.0492	0.0548	0.0599	0.0654
in DMF	0.00652	0.00892	0.0117	0.0152	0.019	0.0241	0.0303	0.0374	0.0454	0.055
in DMSO	–	–	0.0144	0.0186	0.0229	0.0288	0.0351	0.042	0.0495	0.0571
in acetonitrile	0.000228	0.000339	0.000463	0.000618	0.000808	0.00107	0.00137	0.00177	0.00221	0.00282
in cyclohexane	2.97e-05	4.31e-05	5.94e-05	8.23e-05	0.000116	0.000159	0.000216	0.000292	0.000391	0.000515
in ethyl acetate	0.00603	0.00799	0.0102	0.0127	0.0162	0.0201	0.0252	0.0314	0.0383	0.0458
in ethyl formate	0.00169	0.00239	0.00311	0.00405	0.00506	0.0066	0.00833	0.01	0.0131	0.0159
in ethylene glycol	8.74e-05	0.000132	0.000177	0.000233	0.000311	0.000406	0.000546	0.000717	0.000931	0.00122
in n-heptanol	0.00557	0.00726	0.00924	0.0114	0.0142	0.0171	0.0214	0.0257	0.0306	0.0366
in n-hexanol	0.00435	0.00581	0.00758	0.0094	0.0118	0.0144	0.0176	0.021	0.0251	0.0295
in n-pentanol	0.00335	0.00432	0.00575	0.00741	0.00916	0.0112	0.0138	0.0169	0.0206	0.0243
in n-pentyl acetate	0.00558	0.00726	0.00931	0.0116	0.0146	0.0179	0.0218	0.0261	0.031	0.0371
